Series [1] deals with T1, hAPJ (Homo sapiens, UniProt P35414).
T1 sequence (P35414 1-380): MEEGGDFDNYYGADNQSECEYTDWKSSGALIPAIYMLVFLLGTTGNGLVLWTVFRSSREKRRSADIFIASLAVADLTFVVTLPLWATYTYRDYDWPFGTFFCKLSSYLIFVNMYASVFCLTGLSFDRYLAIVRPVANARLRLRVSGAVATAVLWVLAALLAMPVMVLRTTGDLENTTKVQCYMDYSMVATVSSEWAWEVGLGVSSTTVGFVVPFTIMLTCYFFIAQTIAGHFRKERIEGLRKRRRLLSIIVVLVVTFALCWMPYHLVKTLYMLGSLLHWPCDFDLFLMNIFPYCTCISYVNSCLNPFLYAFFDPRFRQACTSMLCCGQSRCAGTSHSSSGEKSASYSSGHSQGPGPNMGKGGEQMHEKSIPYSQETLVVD
Put plainly: hAPJ receptor internalization assay (APJ-GFP translocation, HEK293). The format is cell-based. The arrangement: expressed in transfected cells; host or cells: HEK293, adenoviral transduction (Ad-GFP-hAPJ). Particulars: 500 nM max, read-out: Relative EC50 (nM), hAPJ internalisation.
Description: HEK293 cells are seeded 24 hours prior to experiment at 50% confluence in 2×F75 flasks. The next morning, cells are trypsinized, vortexed for 60 seconds and passed through a 40 micron mesh filter. Cells are resuspended at a density of 300,000 cells/ml in OptiMEM+2% FBS, and Ad-GFP-hAPJ virus is added at an MOI of 1 PFU/cell. Cells are vortexed and dispensed into 96 well clear bottom, black dishes at a concentration of 10,000 cells/well. Cells are maintained at room temperature for 30 minutes to allow cell attachment to the dish prior to Incubation overnight at 37° C. in a 5% CO2 incubator. Next morning, apelin analogs are added in a concentration response curve (500 nM max). APJ-GFP translocation is observed and documented on Olympus FV con-focal microscope.

For series [2], the target named is T1, hAPJ. Put plainly: beta arrestin assay (DiscoverX). The format is cell-based. To be noted: for Ratio β-arrestin/cAMP: ratio of β-arrestin EC50 to cAMP EC50; for EC50: read-out: β-arrestin EC50.
Description: (§1) (Me)lan apelin variants were tested with cAMP and beta arrestin assays from the company DiscoverX.
The target of series [3] is T1, hAPJ. The experiment in a line: APJ competition binding assay ([125I]-Apelin 13, SPA, HEK293 membranes). The arrangement: expressed in transfected cells; host or cells: HEK293, adenoviral transduction (Ad-GFP-hAPJ). Particulars: competition with 0.06 nM [Glp65,Nle75,Tyr77][125I]-Apelin 13; read-out: Relative IC50, hAPJ BINDING.
Description: [Glp^65, Nle^75, Tyr^77][^125I]-Apelin 13 binding experiments are carried out in SPA 96-well format. Membranes used in this assay are prepared from HEK293 cells stably expressing either recombinant hAPJ or rAPJ. The incubation is initiated by the addition of a mixture of WGA PVT SPA beads (0.5 mg/well) and 0.08 μg of membranes to an assay buffer (25 mM HEPES, 10 mM MgCl2, 1 mM CaCl2, 0.1% BSA, pH7.4) containing 0.06 nM [Glp^65, Nle^75, Tyr^77][^125I]-Apelin 13 and increasing concentrations of the tested compound (10 point concentration response curves). Non-specific binding is determined in the presence of 100 nM apelin 17. Samples are incubated during eight hours at room temperature (22° C.). Then, 96-well plates are read in a Microbeta Trilux.
Series [4] has as its target T2, hAPJ (Homo sapiens, UniProt P35414).
T2 construct: host or cells: CHO-K1
Put plainly: hAPJ β-arrestin recruitment assay (PathHunter, CHO-K1). The format is cell-based. To be noted: for EC50: 90 min incubation at 37° C., read-out: Relative EC50, Arrestin recruitment. (Arrestin recruitment assays detect the binding of arrestin to an activated receptor.)
T2 sequence (P32121 whole entry partner, one chain of several): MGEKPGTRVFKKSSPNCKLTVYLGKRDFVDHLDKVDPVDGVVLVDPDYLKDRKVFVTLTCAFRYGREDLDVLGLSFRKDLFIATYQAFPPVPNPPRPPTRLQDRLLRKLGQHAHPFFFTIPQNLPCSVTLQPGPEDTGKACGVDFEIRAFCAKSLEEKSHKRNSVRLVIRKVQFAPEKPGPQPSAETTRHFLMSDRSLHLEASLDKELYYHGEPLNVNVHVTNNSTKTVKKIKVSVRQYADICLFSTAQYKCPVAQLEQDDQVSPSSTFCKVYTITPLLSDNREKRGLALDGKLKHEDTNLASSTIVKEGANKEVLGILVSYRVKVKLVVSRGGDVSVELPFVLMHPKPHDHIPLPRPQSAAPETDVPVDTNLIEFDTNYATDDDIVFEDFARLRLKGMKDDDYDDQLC
Description: Stimulation of hAPJ interaction with 6-arrestin is studied using the PathHunter™ system from DiscoveRx. CHO-K1 cell line was engineered to co-express the ProLink/Enzyme donor (PK)-tagged APJ and the enzyme activator (EA)-tagged 6-arrestin fusion proteins. Upon GPCR activation, enzyme fragment complementation occurs, to produce an active β-Gal enzyme. These cells are seeded at a density of 15000 cells/well. […] Following 90 min incubation at 37° C. with the compounds, cells are lysed and incubated with PathHunter reagent for 1 hour at room temperature. Samples are then read with an ultrasensitive luminescence protocol using an Envision instrument (Perkin Elmer).

For series [5], the target named is T3, HEK293 cells expressing recombinant APJ receptors (Homo sapiens, UniProt P35414).
T3 construct: expressed in transfected cells; host or cells: HEK293
T3 sequence (P35414 1-380): T1 sequence (P35414 1-380)
The experiment in a line: Forskolin-stimulated cAMP assay (HTRF). The format is cell-based. To be noted: 10 μM forskolin, 0.5 mM IBMX, 40 min; read-out: Relative EC50 (nM), cAMP. (cAMP levels reflect the balance of adenylyl cyclase and phosphodiesterase activity.)
Description: Cyclic AMP level in HEK293 cells expressing recombinant APJ receptors is assayed by an HTRF competitive immunoassay. Cells at a density of 4000 cells/well are resuspended in assay buffer (HBSS containing Ca^2+ and Mg^2+ supplemented with 0.1% BSA and 5 mM HEPES) and added to the assay plate. Incubation for 40 min at room temperature is started with the addition of increasing concentrations of the compounds containing 10 μM forskolin and 0.5 mM IBMX. Reaction is stopped by addition of lysis buffer including d2-labeled cAMP, followed by addition of cryptate-labeled anti-cAMP monoclonal antibody, according to the manufacturer instructions. Time-resolved fluorescence at 620 and 665 nm is measured in an Envision instrument after 2 hour incubation at room temperature in the dark. cAMP content in the samples is determined by interpolation in a cAMP standard curve.

Series [6] can be described thus: Stability of apelin analogs in rat plasma. The format is in vitro ADME. The method, then:
Stability of apelin analogs in rat plasma. […] Samples were quenched by acidifying to final concentration of 5% TFA. Samples were analyzed on HPLC. Peak heights were plotted as relative to the initial peak heights.

Series [7] has as its target T1, hAPJ. Put plainly: cAMP assay (DiscoverX). It is filed as cell-based.
Description: as §1
The test system of series [8] is human immunodeficiency virus. To be noted: cited from earlier work.

Like-named read-outs stand apart in the source and are kept apart here. Numbered stars: 1 amine (or outer) side, 2 acyl side, 3 side chain; on linkers, the order of the positions; unused ones are H or OH. Bridge positions count the residues as written; N and C are the ends. Square brackets hold non-standard residues; d marks the D form. Ends that are not written are not given here. Peptide text beside a SMILES is read from it. ξ: configuration not given here. ξAbu(3ξ-yl) = CC(C(N[*:1])C(=O)[*:2])[*:3]; pGlu = O=C1CC[C@@H](C(=O)O)N1; X1 = CC=C(N[*:1])C(=O)[*:2]; ξC = NC(CS)C(=O)O

Broadly, the EC50 is the concentration at which the effect is half-maximal. For orientation: IC50 means the point on the concentration scale where inhibition reaches its midpoint. With `CSCC[C@H](NC(=O)[C@@H]1CCCN1C(=O)C1CSC(C)C(NC(=O)[C@H](CC(C)C)NC(=O)[C@H](CCCNC(=N)N)NC(=O)[C@@H]2CCCN2C(=O)[C@H](CCCNC(=N)N)NC(=O)[C@@H]2CCC(=O)N2)C(=O)N[C@@H](Cc2c[nH]cn2)C(=O)N[C@@H](CCCCN)C(=O)N1)C(=O)N1CCC[C@H]1C(=O)N[C@@H](Cc1ccccc1)C(=O)O` (stereo partly shown) [pEApeM5, pERPRLmelanHKmelanPMPF] ([pGlu]RPRL[ξAbu(3ξ-yl)]HK[ξC]PMPF-OH; thioether 6-9; C-terminus assumed), the EC50 in series [1] was found to be 1.25 nM; in series [2] it was 67 nM; in series [4], 14.1 nM; in series [5] it was 29.3 nM; in series [7] it was 7 nM. Besides, the “Ratio β-arrestin/cAMP” value in series [2] came to 9. Also, the IC50 in series [3] came to 115 nM. Also, the “activity in arrestin recruitment assay” value in series [4] is “significant activity”. In addition, in series [6] (rat, plasma, pH 7.4), the half-life at 0.1 mg/ml is 9 h.

Take QRPRLAHKGPMPF [reference compound]: in series [2], the “Ratio β-arrestin/cAMP” value worked out at 20 and the EC50 came out at 12 nM. Besides, the EC50 in series [7] came out at 0.6 nM.

As for `CC=C(NC(=O)[C@H](CCSC)NC(=O)[C@@H]1CCCN1C(=O)C1CSC(C)C(NC(=O)[C@H](CC(C)C)NC(=O)[C@H](CCCNC(=N)N)NC(=O)[C@@H]2CCCN2C(=O)[C@H](CCCNC(=N)N)NC(=O)[C@@H]2CCC(=O)N2)C(=O)N[C@@H](Cc2c[nH]cn2)C(=O)N[C@@H](CCCCN)C(=O)N1)C(=O)N[C@@H](Cc1ccccc1)C(=O)O` (stereo partly shown) [pEApeM5T, pERPRLmeLanHKmeLanPMDhbF] ([pGlu]RPRL[ξAbu(3ξ-yl)]HK[ξC]PM[X1]F-OH; thioether 6-9; C-terminus assumed), in series [2], the “Ratio β-arrestin/cAMP” value came to 0.16 and the EC50 was 32 nM. The “stability in rat plasma” value in series [6] (rat, plasma) is “enhanced stability”. The compound also showed a half-life at 0.1 mg/ml in series [6] (rat, plasma, pH 7.4) of 24 h. In series [7], this compound yielded an EC50 of 190 nM.

With `CSCC[C@H](NC(=O)[C@@H]1CCCN1C(=O)CNC(=O)C1CSC(C)C(NC(=O)[C@H](CC(C)C)NC(=O)[C@H](CCCNC(=N)N)NC(=O)[C@@H]2CCCN2C(=O)[C@H](CCCNC(=N)N)NC(=O)[C@@H]2CCC(=O)N2)C(=O)N[C@@H](Cc2c[nH]cn2)C(=O)N[C@@H](CCCCN)C(=O)N1)C(=O)N1CCC[C@H]1C(=O)N[C@@H](Cc1ccccc1)C(N)=O` (stereo partly shown) [amidated pEApeM6, pERPRLmeLanHKmeLanGPMPF-NH2] ([pGlu]RPRL[ξAbu(3ξ-yl)]HK[ξC]GPMPF-NH2; thioether 6-9), in series [2], the “Ratio β-arrestin/cAMP” value came to 0.75. Moreover, the figures for the EC50 in series [2] and in series [7] were 60 nM and 80 nM, respectively.

Take `CSCC[C@@H]1NC(=O)[C@@H]2CCCN2C(=O)CNC(=O)[C@H](CCCCN)NC(=O)[C@H](Cc2c[nH]cn2)NC(=O)C(NC(=O)[C@H](CC(C)C)NC(=O)[C@H](CCCNC(=N)N)NC(=O)[C@@H]2CCCN2C(=O)[C@H](CCCNC(=N)N)NC(=O)[C@@H]2CCC(=O)N2)CSCC(C(=O)N2CCC[C@H]2C(=O)N[C@@H](Cc2ccccc2)C(=O)O)NC1=O` (single isomer, unassigned) [pEApeM27S I, pERPRLLanHKGPMLanPF]: in series [2], the “Ratio β-arrestin/cAMP” value is given as 50. This compound also showed a half-life at 0.1 mg/ml in series [6] (rat, plasma, pH 7.4) greater than 24 h.

On to `CSCC[C@H](NC(=O)[C@@H]1CCCN1C(=O)CNC(=O)[C@H](CCCCN)NC(=O)[C@H](Cc1c[nH]cn1)NC(=O)[C@H](CO)NC(=O)[C@H](CC(C)C)NC(=O)[C@H](CCCNC(=N)N)NC(=O)[C@@H]1CCCN1C(=O)[C@H](CCCNC(=N)N)NC(=O)[C@@H](N)CCC(N)=O)C(=O)N1CCC[C@H]1C(=O)N[C@@H](Cc1ccccc1)C(=O)O` [reference compound], for which, in series [8], the “blocking of HIV entry into cells” value is listed as “poorly blocks”. Further, in series [6] (10% rat plasma, pH 7.4, 37° C., 0.1 mg/ml, read-out: T50 stability in rat plasma (converted)), the half-life at 0.1 mg/ml was 1 h.

For `CSCC[C@H](NC(=O)[C@@H]1CCCN1C(=O)CNC(=O)[C@H](CCCCN)NC(=O)C1CSC(C)C(NC(=O)[C@H](CCCNC(=N)N)NC(=O)[C@@H]2CCCN2C(=O)[C@H](CCCNC(=N)N)NC(=O)[C@@H]2CCC(=O)N2)C(=O)N[C@@H](CC(C)C)C(=O)N[C@@H](C)C(=O)N1)C(=O)N1CCC[C@H]1C(=O)N[C@@H](Cc1ccccc1)C(=O)O` (stereo partly shown) [pEApeI4a, pERPRmeLanLAmeLanKGPMPF] ([pGlu]RPR[ξAbu(3ξ-yl)]LA[ξC]KGPMPF-OH; thioether 5-8; C-terminus assumed), in series [2], the “Ratio β-arrestin/cAMP” value was 87 and the EC50 is 1110 nM. The half-life at 0.1 mg/ml in series [6] (rat, plasma, pH 7.4) is 2 h. In addition, the 50% effective concentration (EC50) in series [7] was determined as 12.8 nM.

As for `CSCC[C@H](NC(=O)[C@@H]1CCCN1C(=O)CNC(=O)C1CSC(C)C(NC(=O)[C@H](CC(C)C)NC(=O)[C@H](CCCNC(=N)N)NC(=O)[C@@H]2CCCN2C(=O)[C@H](CCCNC(=N)N)NC(=O)[C@@H]2CCC(=O)N2)C(=O)N[C@@H](Cc2c[nH]cn2)C(=O)N[C@@H](CCCCN)C(=O)N1)C(=O)N1CCC[C@H]1C(=O)O` (stereo partly shown) [pEApeM6deltaF, pERPRLmeLanHKmeLanGPMP] ([pGlu]RPRL[ξAbu(3ξ-yl)]HK[ξC]GPMP-OH; thioether 6-9; C-terminus assumed), the 50% effective concentration (EC50) in series [1] is greater than 1000 nM; in series [2] it was 385 nM; in series [7] it was 125 nM. Further, the “Ratio β-arrestin/cAMP” value in series [2] was found to be 3.

On to `CSCC[C@H](NC(=O)[C@@H]1CCCN1C(=O)CNC(=O)[C@H](CCCCN)NC(=O)C1CSC(C)C(NC(=O)[C@@H]2CCCN2C(=O)[C@H](CCCNC(=N)N)NC(=O)[C@@H]2CCC(=O)N2)C(=O)N[C@@H](CCCNC(=N)N)C(=O)N[C@@H](CC(C)C)C(=O)N[C@@H](C)C(=O)N1)C(=O)N1CCC[C@H]1C(=O)N[C@@H](Cc1ccccc1)C(=O)O` (stereo partly shown) [pEApeI3c, pERPmeLanRLAmeLanKGPMPF] ([pGlu]RP[ξAbu(3ξ-yl)]RLA[ξC]KGPMPF-OH; thioether 4-8; C-terminus assumed), for which, in series [2], the “Ratio β-arrestin/cAMP” value turned out to be 167 and the EC50 was found to be 2840 nM. The compound also showed a half-life at 0.1 mg/ml in series [6] (rat, plasma, pH 7.4) of 2 h. In series [7], this compound displayed a concentration for a half-maximal effect (EC50) of 17 nM.

For `CSCC[C@@H]1NC(=O)[C@@H]2CCCN2C(=O)CNC(=O)C(NC(=O)[C@H](Cc2c[nH]cn2)NC(=O)[C@H](C)NC(=O)[C@H](CC(C)C)NC(=O)[C@H](CCCNC(=N)N)NC(=O)[C@@H]2CCCN2C(=O)[C@H](CCCNC(=N)N)NC(=O)[C@@H]2CCC(=O)N2)CSCC(C(=O)N[C@@H](Cc2ccccc2)C(=O)O)NC1=O` (stereo partly shown) [pEApeT8cS], in series [2], the “Ratio β-arrestin/cAMP” value is listed as 122. In addition, the EC50 in series [2] came to 245 nM; in series [7], 2 nM. This compound had a half-life at 0.1 mg/ml in series [6] (rat, plasma, pH 7.4) of 8 h.

With `CSCC[C@H](NC(=O)C1CSC(C)C(NC(=O)[C@H](CC(C)C)NC(=O)[C@H](CCCNC(=N)N)NC(=O)[C@@H]2CCCN2C(=O)[C@H](CCCNC(=N)N)NC(=O)[C@@H]2CCC(=O)N2)C(=O)N[C@@H](Cc2c[nH]cn2)C(=O)N[C@@H](CCCCN)C(=O)NCC(=O)N1)C(=O)N1CCC[C@H]1C(=O)N[C@@H](Cc1ccccc1)C(=O)O` (stereo partly shown) [pEApeM8, pERPRLmeLanHKGmeLanMPF] ([pGlu]RPRL[ξAbu(3ξ-yl)]HKG[ξC]MPF-OH; thioether 6-10; C-terminus assumed), the EC50 in series [1] is greater than 1000 nM; in series [2], greater than 1000 nM; in series [4], greater than 300 nM; in series [5], greater than 300 nM; in series [7], 125 nM. The “Ratio β-arrestin/cAMP” value in series [2] is recorded as greater than 8. The IC50 in series [3] was greater than 1000 nM. The compound also gave a half-life at 0.1 mg/ml in series [6] (rat, plasma, pH 7.4) of 24 h.

In the case of `CSCC[C@@H]1NC(=O)[C@@H]2CCCN2C(=O)CNC(=O)C(NC(=O)[C@H](Cc2c[nH]cn2)NC(=O)[C@H](C)NC(=O)[C@H](CC(C)C)NC(=O)[C@H](CCCNC(=N)N)NC(=O)[C@@H]2CCCN2C(=O)[C@H](CCCNC(=N)N)NC(=O)[C@@H](N)CCC(N)=O)CSCC(C(=O)N[C@@H](Cc2ccccc2)C(=O)O)NC1=O` (stereo partly shown) [ApeT8cS], the “activity in Example 8” value in series [7] is given as “significant activity”.

The record behind these values is US20170107257A1, “CYCLIC APELIN ANALOGS” (LANTHIOPEP B.V., priority 2014, published 2017).
